Target: T1, BRAF V600E (Homo sapiens, UniProt P15056, V600E)
T1 construct: endogenous C-terminal HiBiT fusion tag on BRAF V600E allele; endogenous in cells; host or cells: A375 clone 1F10 (CRISPR-Cas9 knock-in of the HiBiT tag; parental A375 from ATCC)
Test: BRAF HiBiT degradation assay, C-terminal HiBiT-tagged BRAF V600E A375 cells (clone 1F10), Nano-Glo HiBiT Lytic assay
Assay type: cell-based
Conditions: A375 (BRAF V600E); for DC50: DC50 at 50%: fitted conc. at Y=50; for Dmax: A-375, percentage protein degraded at maximal compound effect relative to DMSO
Method in brief: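 Endogenous BRAF V600E-HiBiT A375 (1F10), 10,000 cells/well, 24 h preculture; cpd 11-pt, 1 μM–0.01 nM half-log, n=2, 0.2% DMSO; HiBiT lytic detection 10 min RT; DC50 = fitted conc at Y=50; Obs. Dmax vs DMSO.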

T1 sequence (P15056 whole entry V600E, the tested form may be a part): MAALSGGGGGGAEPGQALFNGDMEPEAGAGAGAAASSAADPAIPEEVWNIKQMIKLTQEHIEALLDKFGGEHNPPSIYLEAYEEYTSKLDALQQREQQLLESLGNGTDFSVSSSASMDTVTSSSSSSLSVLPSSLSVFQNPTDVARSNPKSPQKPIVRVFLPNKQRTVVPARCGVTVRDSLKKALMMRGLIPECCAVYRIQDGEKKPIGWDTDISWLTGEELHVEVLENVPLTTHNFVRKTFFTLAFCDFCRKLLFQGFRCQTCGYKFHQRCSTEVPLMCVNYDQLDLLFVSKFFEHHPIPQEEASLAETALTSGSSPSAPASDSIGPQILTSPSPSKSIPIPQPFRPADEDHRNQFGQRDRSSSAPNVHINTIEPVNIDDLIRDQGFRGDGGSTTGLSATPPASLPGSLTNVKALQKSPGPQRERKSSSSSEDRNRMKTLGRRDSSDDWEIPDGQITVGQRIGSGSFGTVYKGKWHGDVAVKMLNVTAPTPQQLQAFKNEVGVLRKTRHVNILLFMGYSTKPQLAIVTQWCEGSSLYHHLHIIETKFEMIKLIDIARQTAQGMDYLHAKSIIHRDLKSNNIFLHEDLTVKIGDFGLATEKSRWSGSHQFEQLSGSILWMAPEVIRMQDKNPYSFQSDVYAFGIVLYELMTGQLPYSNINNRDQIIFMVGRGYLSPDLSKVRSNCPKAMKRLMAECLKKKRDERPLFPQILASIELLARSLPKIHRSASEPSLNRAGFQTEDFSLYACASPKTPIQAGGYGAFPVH

Row | Compound | DC50 | Dmax
1 | CCCS(=O)(=O)Nc1cccc(-c2nc(C(C)(C)C)sc2-c2ccnc(NC3CC4(C3)CN(C(=O)CC3CCN(C5CCN(c6ccc7c(c6)C(=O)N(C6CCC(=O)NC6=O)C7=O)CC5)CC3)C4)n2)c1F (racemic) [Compound 157, Rac-N-(3-{2-tert-butyl-5-[2-({2-[2-(1′-{2-[(3R)-2,6-dioxopiperidin-3-yl]-1,3-dioxo-2,3-dihydro-1H-isoindol-5-yl}-[1,4′-bipiperidin]-4-yl)acetyl]-2-azaspiro[3.3]heptan-6-yl}amino)pyrimidin-4-yl]-1,3-thiazol-4-yl}-2-fluorophenyl)propane-1-sulfonamide] | 50 to 500 nM | 30 to 70%
2 | CCCS(=O)(=O)Nc1cccc(-c2nc(C(C)(C)C)sc2-c2ccnc(Nc3ccc(C4CCN(C(=O)C[C@@H]5CCN(c6ccc(C7CCC(=O)NC7=O)cc6)C5)CC4)cc3)n2)c1F (mixture of isomers) [Compound 166, N-{3-[2-tert-butyl-5-(2-{[4-(1-{2-[(3S)-1-{4-[(3RS)-2,6-dioxopiperidin-3-yl]phenyl}pyrrolidin-3-yl]acetyl}piperidin-4-yl)phenyl]amino}pyrimidin-4-yl)-1,3-thiazol-4-yl]-2-fluorophenyl}propane-1-sulfonamide] | 50 to 500 nM | 30 to 70%
3 | CCCS(=O)(=O)Nc1cccc(-c2cn(-c3ccc(C(=O)N4CCN(C(=O)C5CCN(c6ccc(C7CCC(=O)NC7=O)cc6)CC5)CC4)cc3)nc2-c2ccncc2)c1F (racemic) [Compound 14, Rac-N-[3-(1-{4-[4-(1-{4-[(3R)-2,6-dioxopiperidin-3-yl]phenyl}piperidine-4-carbonyl)piperazine-1-carbonyl]phenyl}-3-(pyridin-4-yl)-1H-pyrazol-4-yl)-2-fluorophenyl]propane-1-sulfonamide] | 50 to 500 nM | 30 to 70%
4 | CCCS(=O)(=O)Nc1cccc(-c2nc(C(C)(C)C)sc2-c2ccnc(Nc3cnn(CC4CCN(C(=O)C5CCN(c6ccc(C(=O)NC7CCC(=O)NC7=O)nc6)CC5)CC4)c3)n2)c1F (racemic) [Compound 115, Rac-5-{4-[4-({4-[(4-{2-tert-butyl-4-[2-fluoro-3-(propane-1-sulfonamido)phenyl]-1,3-thiazol-5-yl}pyrimidin-2-yl)amino]-1H-pyrazol-1-yl}methyl)piperidine-1-carbonyl]piperidin-1-yl}-N-[(3R)-2,6-dioxopiperidin-3-yl]pyridine-2-carboxamide] | 50 to 500 nM | 30 to 70%
5 | CCCS(=O)(=O)Nc1cccc(-c2nc(C(C)(C)C)sc2-c2ccnc(NC3CC4(C3)CN(C(=O)C3CCN(c5cccc6c5n(C)c(=O)n6C5CCC(=O)NC5=O)CC3)C4)n2)c1F (racemic) [Compound 160, Rac-N-{3-[2-tert-butyl-5-(2-{[2-(1-{1-[(3R)-2,6-dioxopiperidin-3-yl]-3-methyl-2-oxo-2,3-dihydro-1H-1,3-benzodiazol-4-yl}piperidine-4-carbonyl)-2-azaspiro[3.3]heptan-6-yl]amino}pyrimidin-4-yl)-1,3-thiazol-4-yl]-2-fluorophenyl}propane-1-sulfonamide] | – | 30 to 70%
6 | CCCS(=O)(=O)Nc1cccc(-c2nc(C3CCN(CC4CCN(C(=O)[C@H]5CC[C@H](Oc6cccc(C7CCC(=O)NC7=O)c6)CC5)CC4)CC3)sc2-c2ccnc(N)n2)c1F (mixture of isomers) [Compound 223, N-{3-[5-(2-aminopyrimidin-4-yl)-2-[1-({1-[(1r,4r)-4-{3-[(3RS)-2,6-dioxopiperidin-3-yl]phenoxy}cyclohexanecarbonyl]piperidin-4-yl}methyl)piperidin-4-yl]-1,3-thiazol-4-yl]-2-fluorophenyl}propane-1-sulfonamide] | 50 to 500 nM | 30 to 70%
7 | CCCS(=O)(=O)Nc1cccc(-c2nc(C)sc2-c2ccnc(Nc3ccc(C4CCN(CC5CCN(c6ccc([C@@H]7CCC(=O)NC7=O)cc6)CC5)CC4)cc3)n2)c1F [Compound 64, N-[3-(5-{2-[(4-{1-[(1-{4-[(3S)-2,6-dioxopiperidin-3-yl]phenyl}piperidin-4-yl)methyl]piperidin-4-yl}phenyl)amino]pyrimidin-4-yl}-2-methyl-1,3-thiazol-4-yl)-2-fluorophenyl]propane-1-sulfonamide] | 10 to 50 nM | > 70%
8 | CCCS(=O)(=O)Nc1cccc(-c2nc(C(C)(C)C)sc2-c2ccnc(Nc3ccc(C4CCN(C(=O)C5CCN(CC6CCN(c7ccc(C8CCC(=O)NC8=O)cn7)CC6)CC5)CC4)cc3)n2)c1F (racemic) [Compound 175, Rac-N-{3-[2-tert-butyl-5-(2-{[4-(1-{1-[(1-{5-[(3R)-2,6-dioxopiperidin-3-yl]pyridin-2-yl}piperidin-4-yl)methyl]piperidine-4-carbonyl}piperidin-4-yl)phenyl]amino}pyrimidin-4-yl)-1,3-thiazol-4-yl]-2-fluorophenyl}propane-1-sulfonamide] | 10 to 50 nM | 30 to 70%
9 | CCCS(=O)(=O)Nc1cccc(-c2nc(C(C)(C)C)sc2-c2ccnc(Nc3cnn(C4CCN(CC[C@@H]5CCN(c6ccc(C7CCC(=O)NC7=O)cn6)C5)CC4)c3)n2)c1F (mixture of isomers) [Compound 78, N-{3-[2-tert-butyl-5-(2-{[1-(1-{2-[(3R)-1-{5-[(3RS)-2,6-dioxopiperidin-3-yl]pyridin-2-yl}pyrrolidin-3-yl]ethyl}piperidin-4-yl)-1H-pyrazol-4-yl]amino}pyrimidin-4-yl)-1,3-thiazol-4-yl]-2-fluorophenyl}propane-1-sulfonamide] | 10 to 50 nM | > 70%
10 | CCCS(=O)(=O)Nc1cccc(-c2nc(C(C)(C)C)sc2-c2ccnc(Nc3cccc(OC4CCN(C(=O)C5CCN(c6ccc(C(=O)NC7CCC(=O)NC7=O)nc6)CC5)CC4)c3)n2)c1F (racemic) [Compound 95, Rac-5-[4-(4-{3-[(4-{2-tert-butyl-4-[2-fluoro-3-(propane-1-sulfonamido)phenyl]-1,3-thiazol-5-yl}pyrimidin-2-yl)amino]phenoxy}piperidine-1-carbonyl)piperidin-1-yl]-N-[(3R)-2,6-dioxopiperidin-3-yl]pyridine-2-carboxamide] | 10 to 50 nM | 30 to 70%

The remaining lines, values ahead:

Row | DC50 | Dmax | Compound
11 | < 10 nM | > 70% | CCCS(=O)(=O)Nc1cccc(-c2nc(C3CCC4(CC3)CN(C(=O)CN3CCC5(CC3)CN(c3ccc6c(c3)C(=O)N(C3CCC(=O)NC3=O)C6=O)C5)C4)sc2-c2ccnc(N)n2)c1F (racemic) [Compound 236, Rac-N-{3-[5-(2-aminopyrimidin-4-yl)-2-{2-[2-(2-{2-[(3R)-2,6-dioxopiperidin-3-yl]-1,3-dioxo-2,3-dihydro-1H-isoindol-5-yl}-2,7-diazaspiro[3.5]nonan-7-yl)acetyl]-2-azaspiro[3.5]nonan-7-yl}-1,3-thiazol-4-yl]-2-fluorophenyl}propane-1-sulfonamide]
12 | 10 to 50 nM | 30 to 70% | CCCS(=O)(=O)Nc1cccc(-c2nc(C(C)(C)C)sc2-c2ccnc(N[C@H]3CC[C@H](CN4CCN(CC5CCN(c6ccc([C@@H]7CCC(=O)NC7=O)cc6)CC5)CC4)CC3)n2)c1F [Compound 139, N-{3-[2-tert-butyl-5-(2-{[(1r,4r)-4-({4-[(1-{4-[(3S)-2,6-dioxopiperidin-3-yl]phenyl}piperidin-4-yl)methyl]piperazin-1-yl}methyl)cyclohexyl]amino}pyrimidin-4-yl)-1,3-thiazol-4-yl]-2-fluorophenyl}propane-1-sulfonamide]
13 | 10 to 50 nM | 30 to 70% | CCCS(=O)(=O)Nc1cccc(-c2nc(C3CCN(C(=O)CN4CCN(c5ccc6c(c5)C(=O)N(C5CCC(=O)NC5=O)C6=O)CC4)CC3)sc2-c2ccnc(N)n2)c1F (racemic) [Compound 233, Rac-N-{3-[5-(2-aminopyrimidin-4-yl)-2-{1-[2-(4-{2-[(3R)-2,6-dioxopiperidin-3-yl]-1,3-dioxo-2,3-dihydro-1H-isoindol-5-yl}piperazin-1-yl)acetyl]piperidin-4-yl}-1,3-thiazol-4-yl]-2-fluorophenyl}propane-1-sulfonamide]
14 | 10 to 50 nM | 30 to 70% | CCCS(=O)(=O)Nc1cccc(-c2nc(C(C)(C)C)sc2-c2ccnc(Nc3cccc(OC4CCN(C(=O)C5CCN(c6cccc(C7CCC(=O)NC7=O)c6)CC5)CC4)c3)n2)c1F (racemic) [Compound 99, Rac-N-[3-(2-tert-butyl-5-{2-[(3-{[1-(1-{3-[(3R)-2,6-dioxopiperidin-3-yl]phenyl}piperidine-4-carbonyl)piperidin-4-yl]oxy}phenyl)amino]pyrimidin-4-yl}-1,3-thiazol-4-yl)-2-fluorophenyl]propane-1-sulfonamide]
15 | < 10 nM | > 70% | CCCS(=O)(=O)Nc1cccc(-c2nc(C3CCN(C(=O)CN4CCC5(CC4)CN(c4ccc6c(c4)C(=O)N(C4CCC(=O)NC4=O)C6=O)C5)CC3)sc2-c2ccnc(N)n2)c1F (racemic) [Compound 239, Rac-N-{3-[5-(2-aminopyrimidin-4-yl)-2-{1-[2-(2-{2-[(3R)-2,6-dioxopiperidin-3-yl]-1,3-dioxo-2,3-dihydro-1H-isoindol-5-yl}-2,7-diazaspiro[3.5]nonan-7-yl)acetyl]piperidin-4-yl}-1,3-thiazol-4-yl]-2-fluorophenyl}propane-1-sulfonamide]
16 | < 10 nM | > 70% | CCCS(=O)(=O)Nc1cccc(-c2nc(C)sc2-c2ccnc(Nc3ccc(C4CCN(CC5CCN(c6ccc(C7CCC(=O)NC7=O)cn6)CC5)CC4)cc3)n2)c1F (racemic) [Compound 54, Rac-N-[3-(5-{2-[(4-{1-[(1-{5-[(3R)-2,6-dioxopiperidin-3-yl]pyridin-2-yl}piperidin-4-yl)methyl]piperidin-4-yl}phenyl)amino]pyrimidin-4-yl}-2-methyl-1,3-thiazol-4-yl)-2-fluorophenyl]propane-1-sulfonamide]
